{"source": "patent US6025365A", "about": "“Chelerythrine and radiation combined tumor therapy” (Arch Development Corp., priority 1997, dated 2000)", "key": {"SQ-20B cells": {"test_system": "SQ-20B cells", "assay": "Viability by propidium iodide exclusion and FACS", "conditions": "2.5 μM chelerythrine and 8 Gy", "protocol": "Cells, 2.5-3.5×10^5, were cultured in 24-well tissue culture plates for all experiments following standard procedures as previously described (Chmura et al., 1996a; 1996b). Cells were treated with varying concentrations of chelerythrine, incubated for 30 minutes at 37° C. and then irradiated. Radiation for all samples was delivered using a ^60 Co-irradiator (Gammacell 220, Atomic Energy of Canada) at a dose rate of 2.0 Gy/sec. After the indicated time points, cells were harvested, washed once in PBS, and resuspended in PBS containing […] propidium iodide. […] Cells undergoing apoptosis also shrink in size. Cells were analyzed via flow cytometry (FACS) following standard procedures as described in (Chmura et al., 1996a; 1996b) on a FACScan (Becton-Dickson) using Lysis II software."}, "neutral sphingomyelinase": {"test_system": "neutral sphingomyelinase", "assay": "Mixed micellar assay, neutral sphingomyelinase activity in treated SQ-20B cells", "assay_type": "cell-based, human", "conditions": "5 μM chelerythrine 30 minutes then 10 Gy; within 5 minutes of IR", "protocol": "FIG. 5A. […] The mixed micellar assay for sphingomyelinase activity was used to quantitate increased enzymatic activity.\nThe mixed micellar sphingomyelinase assay using ^[14] C labeled sphingomyelin was performed as described (Wiegmann et al., 1994) with minor modifications as described herein. Exponentially growing cells 2×10^7 were treated, collected, and lysed in 200 μl of neutral buffer (20 mM Hepes, pH 7.4; 10 mM MgCl2, 2 mM EDTA, 5 mM DTT, […], 10 mM b-glycerolphosphate, 750 μM ATP, 1 mM PMSF, Leupeptin, Pepstatin, 2% Triton X-100) or an acid buffer (pH=5.5, 2% Triton X-100, 1 mM PMSF, Leupeptin, Pepstatin). After incubation for 5 minutes at 4° C., cells were homogenized by sonication and cell debris were removed by low speed centrifugation (800×g). The protein concentration was measured using the BioRad protein assay system (BioRad). Protein (50 μg) was incubated for 2 hours at 37° C. in a buffer (1 ml final volume) containing 20 mM HEPES, 1 mM MgCl2, and 0.9 μl [N-methyl-^14 C sphingomyelin]."}, "SQ-20B xenografts [1]": {"test_system": "SQ-20B xenografts", "assay": "Growth of SQ-20B tumor xenografts in nude mice", "assay_type": "in vivo, nude mice (human tumor xenograft)", "protocol": "FIG. 6. The SQ-20B xenograft system was used to assess the therapeutic efficacy of the combined treatment modality over 30 days. Forty animals (n=40) were treated in each group and the % mean tumor growth was determined for all animals. Calipers were used to measure tumor growth.\nSQ-20B (1-5×10^6) tumor cells were injected into the right hind limbs of nude mice (Fredrick Cancer Research Institute). Xenografts were grown for 2-3 weeks to a mean tumor volume of […]. At day 0, initial tumor volume was determined by direct measurement with calipers. During treatment tumor volumes were measured with calipers twice weekly and represented as percent of original tumor volume. Tumor volumes were calculated by the formula (a×b×c/2) which was derived from that for an ellipsoid (d3/6). Tumor cure was defined as regression to a volume of <10% of original size since, at this volume, it is impossible to differentiate residual tumor from scar tissue. Xenografts were injected with 2 mg/kg chelerythrine chloride on days 0, 3, 7 and 10. Irradiated mice were immobilized in lucite chambers and the entire body was shielded with lead except for the tumor bearing hind limb 14. Tumors were irradiated (5 Gy/day, 4 days/week) to a total dose of 50 Gy using a Maxitron generator (1.88 Gy/min.). Tumors were treated with radiation alone, chelerythrine alone, and buffer or chelerythrine combined with radiation. Data were calculated as the percent of original (day 0) tumor volume and graphed as fractional tumor volume±SEM.\nRadiation was delivered at 5 Gy/day, 4 days per week, for a total of 50 Gy."}, "SQ-20B xenografts [2]": {"test_system": "SQ-20B xenografts", "assay": "Histology of SQ-20B xenografts", "assay_type": "in vivo, nude mice (human tumor xenograft)", "conditions": "combined x-ray and chelerythrine vs IR", "protocol": "Tumors were injected once or twice (day 0 and day 4) with chelerythrine, chelerythrine and 20 Gy (5 Gy/Day) or 20 Gy alone and excised on day 7, fixed in 10% neutral buffered formalin. Tumors were then trimmed and processed in a Tissue Tek II Tissue Processor. Tissues were embedded in paraffin, sectioned and stained with hematoxylin and eosin or with […] of DAPI (4',6-iamidino-2-phenylindole, Sigma D9542, 1 μg/ml in PBT (PBS+1% Triton X-100)), followed by examination for apoptosis and necrosis by light microscopy.\nIn contrast, 1/16 of the radiation+buffer and 13/43 of the chelerythrine only treated animals regressed to less than 10% of the initial tumor volume. […] Representative sections of non-necrotic areas of tumors were stained with DAPI to detect nuclear changes of apoptosis. Tumor sections were taken at day 7 following treatment with 2 injections of chelerythrine alone, 20 Gy alone, 1 injection of chelerythrine and 20 Gy, or 2 treatments with chelerythrine and 20 Gy. Nuclei from non-necrotic areas of tumors treated with radiation alone appeared rounded and contained a smooth heterachromatin appearance. Few apoptotic nuclei as defined by chromatin margination and nuclear shrinkage could be detected in these areas."}, "WEHI-231 cells": {"test_system": "WEHI-231 cells", "assay": "Apoptosis / cell death of WEHI-231 (propidium iodide FACS, gel electrophoresis, DAPI)", "assay_type": "cell-based, murine", "conditions": "24 hours; chelerythrine 10 μM or calphostin C 250 nM", "protocol": "Cells undergoing apoptosis also shrink in size.\nCells, 5×10^5, were centrifuged at 1000 rpm and resuspended in approximately 100 μl cell culture media. The cell suspension was then mixed with 100 μl of DAPI (4',6-iamidino-2-phenylindole, Sigma D9542, 1 μg/ml in PBT (PBS+1% Triton X-100)). One drop of this mixture was placed on a microslide with a coverslip. The cells were viewed by fluorescence microscopy using an Olympus BX-40 microscope with a 100 Watt Mercury lamp, a 16 or 40 X Fluorite objective, N.A. 0.75, (Leco #1-UB527) and a UV filter cube (ex 330-385 nm, em 420 nm, wide band pass, Leco #U-M536). Images were photographed using an Optronics cooled low-light video camera (Leco #DEI-470TB) to which was attached a 2X coupler (Leco #HR200-CMT). The image was saved to a digital file at 72 dpi.\nDNA degradation was assessed as previously described (Gottschalk et al., 1993; 1994). Briefly, following treatment in 100 mm plates or 24 well plates, cells were collected and lysed in 0.5 ml lysis buffer (0.6% SDS+10 mM EDTA, pH 7.0). NaCl was added to a final concentration of 1M, mixed by inversion, incubated for 12 hours at 4° C. and then spun at 14,000 g for 30 minutes. Samples were treated with chloroform (1:1) and precipitated in ethanol prior to electrophoresis in a 3% agarose gel and visualized with ethidium bromide."}, "L-1210 tumor cells": {"test_system": "L-1210 tumor cells", "conditions": "l1210 cells; cited from earlier work"}}, "data": [{"smiles": "COc1ccc2c(c[n+](C)c3c4cc5c(cc4ccc23)OCO5)c1OC", "note": "[chelerythrine, 1,2-dimethoxy-12-methyl[1,3]benzodioxolo[5,6-c]phenanthridinium]", "values": [{"measurement": "decrease in cell survival", "setting": "SQ-20B cells", "value": 85, "unit": "%"}, {"measurement": "neutral sphingomyelinase activity, x-rays and chelerythrine", "setting": "neutral sphingomyelinase", "value": "about 200 % of control"}, {"measurement": "animals with regression to less than 10% of original tumor volume, combined treatment", "setting": "SQ-20B xenografts [1]; 2 mg/kg chelerythrine x4 plus 50 Gy, day 31", "value": "20/41"}, {"measurement": "animals with regression to less than 10% of initial tumor volume, chelerythrine only", "setting": "SQ-20B xenografts [1]; 2 mg/kg x4, day 31", "value": "13/43"}, {"measurement": "tumor regrowth, volume at day 30", "setting": "SQ-20B xenografts [1]; chelerythrine alone, 2 mg/kg days 0, 3, 7, 10", "value": "174 % of the original volume"}, {"measurement": "inflammatory response and necrosis in epidermis and muscle", "setting": "SQ-20B xenografts [2]", "value": "did not increase this response"}, {"measurement": "cell death", "setting": "WEHI-231 cells", "value": "greater than 90%"}, {"measurement": "IC50", "setting": "L-1210 tumor cells", "value": 53, "unit": "nM"}]}]}
